# Assay results reported in patent US6303619A, “Meta-substituted acidic 8-phenylxanthine antagonists of A3 human adenosine receptors” (priority 1998, dated 2001).
# Biological target: T1, human A3 adenosine receptor (Homo sapiens, UniProt P0DMS8)
# T1 construct: clone HS-21a contained the complete open reading frame corresponding to the human homolog of the rat A3 adenosine receptor; expressed in transfected cells; host or cells: CHO cells stably transfected with HS-21a cDNA
# T1 sequence (P0DMS8 1-318): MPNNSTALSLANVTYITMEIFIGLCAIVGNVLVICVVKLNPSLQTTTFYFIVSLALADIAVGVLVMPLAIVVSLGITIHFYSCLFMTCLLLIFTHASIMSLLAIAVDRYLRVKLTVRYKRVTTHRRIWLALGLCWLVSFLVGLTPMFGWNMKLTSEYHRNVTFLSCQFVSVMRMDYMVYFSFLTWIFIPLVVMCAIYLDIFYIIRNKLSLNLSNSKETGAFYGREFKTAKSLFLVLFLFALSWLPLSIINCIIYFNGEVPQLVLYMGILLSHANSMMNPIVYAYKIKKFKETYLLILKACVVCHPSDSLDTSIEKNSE
# Assay: 125I-ABA binding to membranes of stably transfected CHO cells expressing the human A3 adenosine receptor (HS-21a)
# Conditions: human A3
# Procedure: Membranes were prepared from transiently transfected COS7 cells […] after transfection or from G418-selected stably transfected CHO or HEK 293 cells. Cells were harvested in 1 mM EDTA in phosphate buffered saline and centrifuged at 2000×g for 10 minutes. The cell pellet was washed once with phosphate buffered saline. The cell pellet was resuspended in 2 mL of 5 mM Tris, pH 7.6/5mM MgCl2. Membranes were prepared from the cells by freeze-thaw lysis in which the suspension was frozen in a dry ice/ethanol bath and thawed at 25° C. twice. The suspension was homogenized after adding an additional 2 mL of 5 mM Tris, pH 7.6/5 mM MgCl2, in a glass dounce homogenizer with 20 strokes. The membranes were pelleted at 40,000×g at 4° C. for 20 minutes. The membrane pellet was resuspended at a protein concentration of 1-2 mg/mL in binding assay buffer, 50 mM Tris, pH 7.6/10 mM MgCl2. Protein concentration was determined by the method of Bradford ((1976) Anal. Biochem. 72: 248-250). […] Saturation binding of [^125 I]-N^6 -aminiobenizyladenosine (125I-ABA) or [^125 I]-N^6 -2-(4-amino-3-iodophenyl)ethyladenosine (APNEA) was performed on membranes prepared from pSVLA3 transfected COS7 cells. Membranes (100 μg) were incubated in the presence of 0.2 U/mL adenosine deaminase with increasing concentrations of ^125 I-ABA in the range of 0.1-30 nM for 120 minutes at 25° C. in a total volume of 500 μl. The binding assay was terminated by rapid filtration and three washes with ice-cold 50 mM Tris, pH 7.6/10 mM MgCl2 on a Skatron cell harvester equipped with a receptor binding flitermat (SKATRON INSTRUMENTS, INC). Non-specific binding was determined on non-transfected cells. Bound radioactivity was measured by scintillation counting in Ready Safe Scintillation Cocktail (BECKMAN).
# The 1.7 kb HS-21a cDNA (A3) was subcloned as a SalI-BamHl fragment into the expression vector pCMV5 (Mumby, S. M., Heukeroth, R. O., Gordon, J. I. and Gilman, A. G. (1990) Proc. Natl. Acad. Sci. USA 87, 728-732.) creating the vector pCMV5-A3. CHO or HEK 293 cells stably expressing the human HS-21 a cDNA were prepared by co-transfection of 15 μg pCMV5-A3 and 1 μg pWLneo (Stratagene) using the calcium phosphate method. Stable cell lines were also generated using EBV based mammalian expression vectors, pREP (INVITROGEN). Neomycin resistant colonies were selected in 1 mg/mL G418 (GIBCO). Stable colonies were screened for expression of HS-21a by ^125 I-ABA binding.
# Membranes were prepared from stable CHO cell lines in 10 mM Hepes, pH 7.4 containing 0.1 mM benzamidine and 0.1 mM PMSF as described (Mahan, L. C. et al., (1991) Mol. Pharinacol. 40, 1-7). Pellets were resuspended in 5 mM Hepes, pH 7.4/5 mM MgCl2 /0.1 mM benzarnidine/0.1 mM PMSF at a protein concentration of 1-2 mg/mL and were incubated with adenosine deaminase (Boehringer Mannheim), 2 U/mL at 37° C. for 20 minutes. Saturation binding of ^125 I-ABA was carried out on 50 μg of membranes for 120 minutes at 25° C. in a total volume of 100 μl. The assay was terminated by rapid filtration and three washes with ice-cold binding buffer on a Skatron harvester equipped with a receptor binding filtermat (Skatron Instruments, Inc.). The specific activity of ^125 I-ABA, initially 2,200 Ci/mmol, was reduced to 100 Ci/mmol with nonradioactive I-ABA for saturation analysis. Nonspecific binding was measured in the presence of 1 uM I-ABA. The KD and Bmax values were calculated by the EBDA program (McPherson, G. A. (1983) Computer Programs for Biomedicine 17, 107-114). Competition binding of agonists and antagonists was determined with ^125 I-ABA (0.17-2.0 nM, 2000 Ci/mmol). […] Binding data were analyzed and competition curves were constructed by use of the nonlinear regression curve fitting program Graph PAD InPlot, Version 3.0 (Graph Pad Software, San Diego).
smiles,measurement,value
CCCn1c(=O)c2[nH]c(-c3cccc(C=CC(=O)O)c3)nc2n(CCC)c1=O [BW-3911],A3 antagonist affinity in words,potent and selective A3 antagonist
